Measured values taken from US12123009B2, “Methods and compositions for PPO herbicide tolerance in plants” (Monsanto Technology LLC, priority 2015, dated 2024).

Legend:
[1] = system: maize (LH244), non-transgenic or expressing H_N10 (SEQ ID NO:4); experiment: Transgenic Maize Herbicide Tolerance I (R0 plants sprayed); type: in vivo; settings: 7 days
Text: The plant transformation constructs were annotated construct 1, 6, 11, and 16. For maize in planta testing, immature maize (LH244) embryos were transformed with using Agrobacterium tumefaciens and standard methods known in the art.
Leaf samples were collected from R0 plants and screened by PCR to determine the number of copies of the transgene inserted into the plant genome. The plants containing a single copy (single copy) were selfed and outcrossed to generate R1 and F1 seed for future testing, respectively. Plants containing multiple copies (multi-copy) were sprayed as follows: (1) 5 g/ha S-3100 at approximately the V5 growth stage followed by 10 g/ha S-3100 at approximately the V7 growth stage, for a total application of 15 g/ha S-3100 or (2) 10 g/ha S-3100 at approximately the V5 growth stage. The average percentage of injury, on a scale of 0-100 with zero being no injury and 100 being complete crop death, was assessed 7 days after the final treatment for each batch.

[2] = system: transgenic maize expressing HemG PPO enzymes; experiment: Transgenic Maize Herbicide Tolerance II (R0 plants sprayed); type: in vivo; settings: 40 grams/ha; for Average Injury: V5, 7 days
Text: H_N60 (SEQ ID NO:3). […] These five constructs had the same promoter plus leader plus intron combination, with two different targeting peptide (TP) sequences, and the same 3′UTR sequence. Leaf samples were taken from the R0 plants and analyzed by PCR to determine the transgene copy number. Single copy plants for up to 12 unique events per construct were transplanted to pots, selfed and outcrossed to generate R1 and F1 seed, respectively, for future testing. Multi-copy plants and extra single copy plants were sprayed with 40 grams/ha 5-3100 at approximately the V5 growth stage and injury ratings were taken 7 days after treatment. The average percent (%) injury for all plants expressing each PPO enzyme and the number of plants that were deemed highly tolerant (less than 10% injury) was noted, where each plant is a unique single or multi-copy transformant.

[3] = system: R0 transgenic soybean expressing HemG PPO with targeting peptide; experiment: R0 transgenic soybean herbicide tolerance: percent injury scores; type: in vivo; settings: seven days
Text: This permitted the side-by-side comparison of seven different HemG PPO enzymes with thirty-seven different targeting peptides using the same promoter and 3′UTR elements for gene expression. These plant transformation constructs were used to transform soybean excised embryos (germplasm A3555) using A. tumefaciens and standard methods known in the art. Four hundred explants were inoculated for each construct resulting in twelve containers per construct. A sterile PPO herbicide solution was used for herbicide tolerance testing. The herbicide solution consisted of 0.3 g of S-3100 in crop oil concentrate (5.0 mL) and 495 mL of deionized water. This was filtered through a 0.45 micron Nalgene® Rapid-Flow™ Tissue Culture Filter Unit and Surfactant-Free Cellulose Acetate membrane filter unit (VWR, Radnor, PA, USA). The resulting sterile solution was shaken before application.
(§1) The plantlets in the non-sprayed containers corresponding to constructs having a score of 2 were transplanted at approximately 7 weeks post transformation and grown as R0 plants using standard methods known in the art. Plantlets corresponding to non-tolerant scores of 0 and 1 were also grown to serve as negative controls. The R0 plants were grown in a greenhouse under long-day nursery conditions (18 hr light at 80° F. then 6 hr dark at 74° F.) for approximately four weeks. At eleven weeks, the R0 plants were sprayed with two passes of the same herbicide solution (0.3 g of 5-3100) described above. Herbicide injury ratings were collected seven days after treatment.
(§2) The results of the herbicide tolerance application at eleven weeks to the R0 plants confirmed the low percent injury rating scores observed in the high-throughput screen at five weeks. Any injury rating of 30% or above was equivalent to non-transgenic soybean injury ratings. A few of the constructs stood out as providing very good tolerance to the herbicide application. […] Data are provided in Table 10, where n.d. indicates the analysis was not conducted.

[4] = molecular target: H_N60 (SEQ ID NO: 3), microbial HemG protoporphyrinogen oxidase; experiment: PPO enzyme assay (bacterial extract); settings: read-out: S-3100 IC50; 3 μM protogen; pH 7.4, 37° C.
R0 soybean plants = experiment: R0 transgenic soybean herbicide tolerance at eleven weeks; type: in vivo; settings: R0 plants sprayed with S-3100 at eleven weeks, rated seven days after treatment
Protocol: as §1, §2

Q: Which “Average Injury” value ([1]; H_N10, construct 6, Treatment 1: 5 g/ha V5 then 10 g/ha V7 (15 g/ha total)) does the source give for `CCOC(=O)COc1ncccc1Oc1cc(-n2c(=O)cc(C(F)(F)F)n(C)c2=O)c(F)cc1Cl` [S-3100, ethyl [3-2-chloro-4-fluoro-5-(1-methyl-6-trifluoromethyl-2,4-dioxo-1,2,3,4-tetrahydropyrimidin-3-yl)phenoxy]-2-pyridyloxylacetate] here?
A: Its value is 28.9%.

Q: And the “Average Injury” value ([1]; H_N10, construct 16, Treatment 2: 10 g/ha V5)?
A: The value was 24.2%.

Q: And the “Average Injury” value ([1]; nontransgenic, Treatment 1: 5 g/ha V5 then 10 g/ha V7 (15 g/ha total))?
A: Its value is 43.3%.

Q: What about the “Average Injury” value ([1]; nontransgenic, Treatment 2: 10 g/ha V5) of the same molecule?
A: Its value is 26.7%.

Q: What about the “Average Injury” value ([2]; H_N10 (SEQ ID NO 4), construct 6) of the same molecule?
A: The value was 39.5%.

Q: And the “Highly Tolerant (less than 10% injury)” value ([2]; H_N10 (SEQ ID NO 4), construct 6, of 139 plants)?
A: The value was 31 plants.

Q: What about the “Average Injury” value ([2]; H_N40 (SEQ ID NO 6), construct 23) of the same molecule?
A: Its value is 47.0%.

Q: And the “Highly Tolerant (less than 10% injury)” value ([2]; H_N40 (SEQ ID NO 6), construct 23, of 98 plants)?
A: Its value is 53 plants.

Q: What about the “Average Injury” value ([2]; H_N60 (SEQ ID NO 3), construct 20) of the same molecule?
A: The value was 55.8%.

Q: What about the “Highly Tolerant (less than 10% injury)” value ([2]; H_N60 (SEQ ID NO 3), construct 20, of 86 plants) of the same molecule?
A: The value was 19 plants.

Q: And the “Average Injury” value ([2]; H_N90 (SEQ ID NO 1), construct 21)?
A: Its value is 31.4%.

Q: What about the “Highly Tolerant (less than 10% injury)” value ([2]; H_N90 (SEQ ID NO 1), construct 21, of 99 plants) of the same molecule?
A: The value was 44 plants.

Q: What about the “Average Injury” value ([2]; H_N110 (SEQ ID NO 10), construct 22) of the same molecule?
A: The value was 43.0%.

Q: What about the “Highly Tolerant (less than 10% injury)” value ([2]; H_N110 (SEQ ID NO 10), construct 22, of 94 plants) of the same molecule?
A: Its value is 0 plants.

Q: And the percent injury score ([3]; H_N20, TP6)?
A: The percent injury score was 15%.

Q: And the percent injury score ([3]; H_N20, TP7)?
A: The percent injury score was 20%.

Q: What about the percent injury score ([3]; H_N30, TP1) of the same molecule?
A: The percent injury score was 5%.

Q: What about the percent injury score ([3]; H_N40, TP1) of the same molecule?
A: The percent injury score was 5%.

Q: And the percent injury score ([3]; H_N40, TP4)?
A: The percent injury score was 15%.

Q: And the percent injury score ([3]; H_N40, TP7)?
A: The percent injury score was 40%.

Q: And the percent injury score ([3]; H_N40, TP8)?
A: The percent injury score was 30%.

Q: And the percent injury score ([3]; H_N50, TP6)?
A: Its percent injury score is 40%.

Q: What about the percent injury score ([3]; H_N90 (SEQ ID NO:11), TP20) of the same molecule?
A: The percent injury score was 5%.

Q: What about the percent injury score ([3]; H_N90 (SEQ ID NO:11), TP32) of the same molecule?
A: The percent injury score was 50%.

Q: What about the percent injury score ([3]; H_N90, TP1) of the same molecule?
A: Its percent injury score is 3%.

Q: What about the percent injury score ([3]; H_N90, TP2) of the same molecule?
A: Its percent injury score is 35%.

Q: And the percent injury score ([3]; H_N90, TP3)?
A: The percent injury score was 30%.

Q: And the percent injury score ([3]; H_N90, TP6)?
A: Its percent injury score is 25%.

Q: What about the percent injury score ([3]; H_N90, TP7) of the same molecule?
A: The percent injury score was 15%.

Q: And the percent injury score ([3]; H_N90, TP8)?
A: Its percent injury score is 40%.

Q: And the percent injury score ([3]; H_N100, TP1)?
A: The percent injury score was 15%.

Q: What about the percent injury score ([3]; H_N100, TP6) of the same molecule?
A: Its percent injury score is 30%.

Q: What about the percent injury score ([3]; H_N100, TP7) of the same molecule?
A: Its percent injury score is 30%.

Q: And the IC50 [4]?
A: The IC50 was > 100 µM.

B1: H_N90: microbial HemG protoporphyrinogen oxidase, SEQ ID NO:1 (SEQ ID NO:11 lacking start methionine; variants 18, 19) (protein, listed as Enterobacter cloacae)
chain: MKALVLYSTRDGQTHAIASYIASCMKEKAECDVIDLTHGEHVNLTQYDQVLIGASIRYGHFNAVLDKFIKRNVDQLNNMPSAFFCVNLTARKPEKRTPQTNPYVRKFLLATPWQPALCGVFAGALRYPRYRWIDKVMIQLIMRMTGGETDTSKEVEYTDWEQVKKFAEDFAKLSYKKAL
Q: How did the percent injury score (R0 soybean plants; TP1) turn out when B1 was run?
A: The percent injury score was 3%.

Q: And the percent injury score (R0 soybean plants; TP9)?
A: Its percent injury score is 30%.

Q: And the percent injury score (R0 soybean plants; TP10)?
A: The percent injury score was 30%.

Q: What about the percent injury score (R0 soybean plants; TP11) of the same molecule?
A: Its percent injury score is 30%.

Q: And the percent injury score (R0 soybean plants; TP12)?
A: Its percent injury score is 30%.

Q: What about the percent injury score (R0 soybean plants; TP13) of the same molecule?
A: Its percent injury score is 15%.

Q: What about the percent injury score (R0 soybean plants; TP14) of the same molecule?
A: Its percent injury score is 25%.

Q: And the percent injury score (R0 soybean plants; TP15)?
A: Its percent injury score is 35%.

Q: And the percent injury score (R0 soybean plants; TP16)?
A: The percent injury score was 35%.

Q: And the percent injury score (R0 soybean plants; TP17)?
A: Its percent injury score is 15%.

Q: And the percent injury score (R0 soybean plants; TP18)?
A: Its percent injury score is 30%.

Q: And the percent injury score (R0 soybean plants; TP20)?
A: Its percent injury score is 5%.

Q: And the percent injury score (R0 soybean plants; TP21)?
A: Its percent injury score is 25%.

Q: And the percent injury score (R0 soybean plants; TP22)?
A: Its percent injury score is 30%.

Q: What about the percent injury score (R0 soybean plants; TP23) of the same molecule?
A: The percent injury score was 30%.

Q: And the percent injury score (R0 soybean plants; TP26)?
A: Its percent injury score is 40%.

Q: And the percent injury score (R0 soybean plants; TP27)?
A: The percent injury score was 35%.

Q: And the percent injury score (R0 soybean plants; TP28)?
A: Its percent injury score is 30%.

Q: And the percent injury score (R0 soybean plants; TP32)?
A: Its percent injury score is 50%.

Q: What about the percent injury score (R0 soybean plants; TP33) of the same molecule?
A: Its percent injury score is 25%.

Q: What about the percent injury score (R0 soybean plants; TP34) of the same molecule?
A: The percent injury score was 35%.

Q: And the percent injury score (R0 soybean plants; TP35)?
A: The percent injury score was 15%.

Q: What about the percent injury score (R0 soybean plants; TP36) of the same molecule?
A: Its percent injury score is 15%.
